Consider six compounds from patent US20250235543A1, “MODIFIED PROTEINS AND PROTEIN DEGRADERS” (Cullgen (Shanghai), Inc., priority 2021, published 2025).

Where only a bound is given, the exact number is not on record here.

For assay [1], the system named is cyclin D1. Kind of assay: Cyclin D1 percentage degradation in Calu-1 cells (immunoblotting). In kind it is cell-based. To be noted: 200 nM, 16 hours. As for the experimental part:
(§1) […] A: protein percentage degradation >=80%; B: protein percentage degradation <80%, and >=50%; C: protein percentage degradation <50%, and >=30%; D: protein percentage degradation <30%.
(§2) Cultured cells were washed with cold PBS once and lysed in cold RIPA buffer supplemented with protease inhibitors and phosphatase inhibitors (Beyotime Biotechnology). The solutions were then incubated at 4° C. for 30 min with gentle agitation to fully lysed cells. Cell lysates were centrifuged at 13,000 rpm for 10 min at 4° C. and pellets were discarded. Total protein concentrations in the lysates were determined following BCA assays (Beyotime Biotechnology). Cell lysates were mixed with Laemmli loading buffer and heated at 99° C. for 5 min. Proteins were resolved on SDS-PAGE and visualized using Western ECL Substrate kits on a ChemiDoc MP Imaging system (Bio-Rad). Protein bands were quantitated using the Image Lab software provided by Bio-Rad.

Assay [2] concerns the target T1, CDK4 (Homo sapiens, UniProt P11802).
T1 construct: endogenous in cells; host or cells: Calu-1
Nature of the assay: CDK4 percentage degradation in Calu-1 cells (immunoblotting). It counts as cell-based. Conditions: Calu-1 cells, 200 nM, 16 hours; read-out: CDK4 Degradation (200 nM). On the procedure:
as §1, §2
In general terms: In western blotting, separated proteins are transferred to a membrane and probed.

T1 sequence (P11802 2-303 limits assumed): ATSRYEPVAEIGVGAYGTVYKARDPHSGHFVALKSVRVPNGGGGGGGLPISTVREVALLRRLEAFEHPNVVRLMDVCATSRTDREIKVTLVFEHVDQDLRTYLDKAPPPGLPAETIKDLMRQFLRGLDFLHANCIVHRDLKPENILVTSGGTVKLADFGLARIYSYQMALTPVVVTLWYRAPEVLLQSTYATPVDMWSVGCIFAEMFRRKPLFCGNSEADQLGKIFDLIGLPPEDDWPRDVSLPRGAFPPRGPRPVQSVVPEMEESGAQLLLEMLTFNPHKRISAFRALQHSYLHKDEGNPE
T1 sequence (P24385 whole entry partner): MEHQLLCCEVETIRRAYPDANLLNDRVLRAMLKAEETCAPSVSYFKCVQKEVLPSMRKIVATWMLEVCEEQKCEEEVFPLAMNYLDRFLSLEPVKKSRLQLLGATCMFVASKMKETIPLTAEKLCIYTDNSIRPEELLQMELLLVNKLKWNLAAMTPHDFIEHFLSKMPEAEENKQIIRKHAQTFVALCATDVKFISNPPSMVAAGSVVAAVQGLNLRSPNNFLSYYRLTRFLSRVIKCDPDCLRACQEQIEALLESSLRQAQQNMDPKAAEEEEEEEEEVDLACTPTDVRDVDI
T1 sequence (Q16531 2-1140 limits assumed, further chain): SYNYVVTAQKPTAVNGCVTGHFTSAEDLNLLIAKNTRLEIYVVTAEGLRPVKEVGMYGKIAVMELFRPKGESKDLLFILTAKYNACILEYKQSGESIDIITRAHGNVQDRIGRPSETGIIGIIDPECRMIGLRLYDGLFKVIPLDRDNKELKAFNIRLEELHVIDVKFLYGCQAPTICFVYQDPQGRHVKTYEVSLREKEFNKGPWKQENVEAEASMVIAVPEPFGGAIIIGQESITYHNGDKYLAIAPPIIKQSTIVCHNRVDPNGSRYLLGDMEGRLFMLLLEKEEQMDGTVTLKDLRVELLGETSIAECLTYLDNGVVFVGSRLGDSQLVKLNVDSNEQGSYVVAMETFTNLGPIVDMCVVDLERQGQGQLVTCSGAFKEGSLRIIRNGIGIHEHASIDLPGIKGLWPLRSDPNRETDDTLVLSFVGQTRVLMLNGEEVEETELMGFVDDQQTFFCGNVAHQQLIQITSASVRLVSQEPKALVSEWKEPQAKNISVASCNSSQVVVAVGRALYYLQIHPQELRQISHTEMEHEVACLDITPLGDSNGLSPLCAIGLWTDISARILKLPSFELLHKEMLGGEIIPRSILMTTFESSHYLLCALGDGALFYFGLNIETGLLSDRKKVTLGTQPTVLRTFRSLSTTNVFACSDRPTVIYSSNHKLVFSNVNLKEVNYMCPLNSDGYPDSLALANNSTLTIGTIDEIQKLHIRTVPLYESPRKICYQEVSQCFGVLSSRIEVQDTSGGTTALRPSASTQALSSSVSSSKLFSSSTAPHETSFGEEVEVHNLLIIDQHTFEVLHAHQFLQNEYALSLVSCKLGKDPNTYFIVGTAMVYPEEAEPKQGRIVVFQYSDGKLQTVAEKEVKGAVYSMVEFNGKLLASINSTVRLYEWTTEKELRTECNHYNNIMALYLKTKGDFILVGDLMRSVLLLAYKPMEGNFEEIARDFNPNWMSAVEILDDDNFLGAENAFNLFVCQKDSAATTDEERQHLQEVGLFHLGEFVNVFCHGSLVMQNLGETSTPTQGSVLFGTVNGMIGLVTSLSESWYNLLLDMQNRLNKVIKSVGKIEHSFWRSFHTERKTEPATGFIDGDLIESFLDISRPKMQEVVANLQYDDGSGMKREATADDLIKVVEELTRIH

For the compound `CC(=O)c1c(C)c2cnc(Nc3ccc(N4CCN(CC(=O)NCCOCCOCCNC(=O)COc5ccc(C(=O)Nc6ncc(C)s6)c(C)c5)CC4)cn3)nc2n(C2CCCC2)c1=O` [CPD-039, 4-((14-(4-(6-((6-Acetyl-8-cyclopentyl-5-methyl-7-oxo-7,8-dihydropyrido[2,3-d]pyrimidin-2-yl)amino)pyridin-3-yl)piperazin-1-yl)-2,13-dioxo-6,9-dioxa-3,12-diazatetradecyl)oxy)-2-methyl-N-(5-methylthiazol-2-yl)benzamide], the “CyclinD1 Degradation (200 nM)” value in assay [1] is listed as “D (protein percentage degradation <30%)”. In addition, the inhibition at 0.2 µM in assay [2] was less than 30%.
The corresponding values for `CC(=O)c1c(C)c2cnc(Nc3ccc(N4CCN(CC(=O)NCCOCCOCCOCCNC(=O)COc5ccc(C(=O)Nc6ncc(C)s6)c(C)c5)CC4)cn3)nc2n(C2CCCC2)c1=O` [CPD-040, 4-((17-(4-(6-((6-Acetyl-8-cyclopentyl-5-methyl-7-oxo-7,8-dihydropyrido[2,3-d]pyrimidin-2-yl)amino)pyridin-3-yl)piperazin-1-yl)-2,16-dioxo-6,9,12-trioxa-3,15-diazaheptadecyl)oxy)-2-methyl-N-(5-methylthiazol-2-yl)benzamide] are “D (protein percentage degradation <30%)” and less than 30%.
The corresponding values for `CC(=O)c1c(C)c2cnc(Nc3ccc(N4CCN(CC(=O)NCCOCCOCCOCCOCCNC(=O)COc5ccc(C(=O)Nc6ncc(C)s6)c(C)c5)CC4)cn3)nc2n(C2CCCC2)c1=O` [CPD-041, 4-((20-(4-(6-((6-Acetyl-8-cyclopentyl-5-methyl-7-oxo-7,8-dihydropyrido[2,3-d]pyrimidin-2-yl)amino)pyridin-3-yl)piperazin-1-yl)-2,19-dioxo-6,9,12,15-tetraoxa-3,18-diazaicosyl)oxy)-2-methyl-N-(5-methylthiazol-2-yl)benzamide] are “D (protein percentage degradation <30%)” and less than 30%.
For the compound `CC(=O)c1nc(NC(=O)c2ccc(NCCOCCOCCOCCOCCOCCNC(=O)CN3CCN(c4ccc(Nc5ncc6c(C)c(C(C)=O)c(=O)n(C7CCCC7)c6n5)nc4)CC3)cc2C)sc1C` [CPD-045, N-(4-Acetyl-5-methylthiazol-2-yl)-4-((1-(4-(6-((6-acetyl-8-cyclopentyl-5-methyl-7-oxo-7,8-dihydropyrido[2,3-d]pyrimidin-2-yl)amino)pyridin-3-yl)piperazin-1-yl)-2-oxo-6,9,12,15,18-pentaoxa-3-azaicosan-20-yl)amino)-2-methylbenzamide], in assay [1], the “CyclinD1 Degradation (200 nM)” value is on record as “A (protein percentage degradation >=80%)”. Further, the inhibition at 0.2 µM in assay [2] lay in the range of 50 to 80%.
In the same order, the values of `CC(=O)c1c(C)c2cnc(Nc3ccc(N4CCN(CC(=O)NCCCCCCCNC(=O)c5ccc(C(=O)Nc6ncc(C)s6)c(C)c5)CC4)cn3)nc2n(C2CCCC2)c1=O` [CPD-048, N^4-(7-(2-(4-(6-((6-Acetyl-8-cyclopentyl-5-methyl-7-oxo-7,8-dihydropyrido[2,3-d]pyrimidin-2-yl)amino)pyridin-3-yl)piperazin-1-yl)acetamido)heptyl)-2-methyl-N^1-(5-methylthiazol-2-yl)terephthalamide] are “D (protein percentage degradation <30%)” and less than 30%.
The corresponding values for `CC(=O)c1c(C)c2cnc(Nc3ccc(N4CCN(CC(=O)NCCOCCOCCOCCOCCOCCNc5ccc(C(=O)Nc6cc(C)n(C)n6)c(C)c5)CC4)cn3)nc2n(C2CCCC2)c1=O` [CPD-050, 4-((1-(4-(6-((6-Acetyl-8-cyclopentyl-5-methyl-7-oxo-7,8-dihydropyrido[2,3-d]pyrimidin-2-yl)amino)pyridin-3-yl)piperazin-1-yl)-2-oxo-6,9,12,15,18-pentaoxa-3-azaicosan-20-yl)amino)-N-(1,5-dimethyl-1H-pyrazol-3-yl)-2-methylbenzamide] are “A (protein percentage degradation >=80%)” and more than 80%.
